Experimental data taken from ChEMBL document CHEMBL5390280, “Design, Synthesis, and Biological Evaluation of an Orally Bioavailable, Potent, and Selective ROCK2 Inhibitor for Psoriasis Treatment” (J Med Chem, 2023).

Key:
[1] = molecular target: T1, Rho-associated protein kinase 2 (Homo sapiens, UniProt O75116); test: Inhibition of ROCK2 (unknown origin) by HTRF assay
[2] = molecular target: T2, Rho-associated protein kinase 1 (Homo sapiens, UniProt Q13464); test: Inhibition of ROCK1 (unknown origin) by HTRF assay
[3] = Selectivity ratio of IC50 for ROCK1 (unknown origin) to IC50 for ROCK2 (unknown origin)
[4] = molecular target: T1, Rho-associated protein kinase 2; test: Inhibition of ROCK2 (unknown origin)
[5] = molecular target: T2, Rho-associated protein kinase 1; test: Inhibition of ROCK1 (unknown origin)

T2 sequence (Q13464 whole entry): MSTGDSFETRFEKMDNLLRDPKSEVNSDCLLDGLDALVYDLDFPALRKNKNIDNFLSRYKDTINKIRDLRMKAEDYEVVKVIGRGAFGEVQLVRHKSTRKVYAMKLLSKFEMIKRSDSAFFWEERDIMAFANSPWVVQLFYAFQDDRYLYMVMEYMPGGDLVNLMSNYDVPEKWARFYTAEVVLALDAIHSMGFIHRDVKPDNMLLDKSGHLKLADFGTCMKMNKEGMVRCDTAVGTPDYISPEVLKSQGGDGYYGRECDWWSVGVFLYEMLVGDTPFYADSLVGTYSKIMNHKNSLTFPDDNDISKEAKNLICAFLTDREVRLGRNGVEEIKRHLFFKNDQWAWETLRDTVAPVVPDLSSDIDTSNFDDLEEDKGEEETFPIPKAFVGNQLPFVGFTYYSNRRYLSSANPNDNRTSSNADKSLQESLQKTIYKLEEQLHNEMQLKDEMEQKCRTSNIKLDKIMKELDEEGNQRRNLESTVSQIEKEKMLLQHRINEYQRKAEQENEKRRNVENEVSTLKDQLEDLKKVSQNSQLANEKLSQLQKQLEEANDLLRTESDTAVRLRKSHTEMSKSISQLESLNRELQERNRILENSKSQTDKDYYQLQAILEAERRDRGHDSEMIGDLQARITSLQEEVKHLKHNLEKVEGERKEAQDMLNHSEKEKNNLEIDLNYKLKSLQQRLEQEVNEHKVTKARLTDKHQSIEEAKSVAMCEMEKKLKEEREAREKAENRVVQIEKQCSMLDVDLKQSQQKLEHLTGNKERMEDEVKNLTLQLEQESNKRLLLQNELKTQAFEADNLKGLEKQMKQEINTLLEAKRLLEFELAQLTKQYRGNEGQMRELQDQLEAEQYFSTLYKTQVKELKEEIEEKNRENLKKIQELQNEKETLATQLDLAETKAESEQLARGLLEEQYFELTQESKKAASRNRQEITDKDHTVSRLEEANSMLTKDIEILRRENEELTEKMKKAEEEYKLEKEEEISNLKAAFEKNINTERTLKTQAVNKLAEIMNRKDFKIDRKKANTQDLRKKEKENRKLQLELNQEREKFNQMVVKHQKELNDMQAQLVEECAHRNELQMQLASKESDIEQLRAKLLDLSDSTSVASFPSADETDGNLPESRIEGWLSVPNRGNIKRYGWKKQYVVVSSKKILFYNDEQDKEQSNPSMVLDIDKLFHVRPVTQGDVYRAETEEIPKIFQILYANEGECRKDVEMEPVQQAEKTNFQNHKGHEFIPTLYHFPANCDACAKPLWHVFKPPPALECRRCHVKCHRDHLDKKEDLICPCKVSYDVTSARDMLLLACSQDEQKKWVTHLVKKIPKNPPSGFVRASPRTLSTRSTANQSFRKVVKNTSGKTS
T1 sequence (O75116 whole entry): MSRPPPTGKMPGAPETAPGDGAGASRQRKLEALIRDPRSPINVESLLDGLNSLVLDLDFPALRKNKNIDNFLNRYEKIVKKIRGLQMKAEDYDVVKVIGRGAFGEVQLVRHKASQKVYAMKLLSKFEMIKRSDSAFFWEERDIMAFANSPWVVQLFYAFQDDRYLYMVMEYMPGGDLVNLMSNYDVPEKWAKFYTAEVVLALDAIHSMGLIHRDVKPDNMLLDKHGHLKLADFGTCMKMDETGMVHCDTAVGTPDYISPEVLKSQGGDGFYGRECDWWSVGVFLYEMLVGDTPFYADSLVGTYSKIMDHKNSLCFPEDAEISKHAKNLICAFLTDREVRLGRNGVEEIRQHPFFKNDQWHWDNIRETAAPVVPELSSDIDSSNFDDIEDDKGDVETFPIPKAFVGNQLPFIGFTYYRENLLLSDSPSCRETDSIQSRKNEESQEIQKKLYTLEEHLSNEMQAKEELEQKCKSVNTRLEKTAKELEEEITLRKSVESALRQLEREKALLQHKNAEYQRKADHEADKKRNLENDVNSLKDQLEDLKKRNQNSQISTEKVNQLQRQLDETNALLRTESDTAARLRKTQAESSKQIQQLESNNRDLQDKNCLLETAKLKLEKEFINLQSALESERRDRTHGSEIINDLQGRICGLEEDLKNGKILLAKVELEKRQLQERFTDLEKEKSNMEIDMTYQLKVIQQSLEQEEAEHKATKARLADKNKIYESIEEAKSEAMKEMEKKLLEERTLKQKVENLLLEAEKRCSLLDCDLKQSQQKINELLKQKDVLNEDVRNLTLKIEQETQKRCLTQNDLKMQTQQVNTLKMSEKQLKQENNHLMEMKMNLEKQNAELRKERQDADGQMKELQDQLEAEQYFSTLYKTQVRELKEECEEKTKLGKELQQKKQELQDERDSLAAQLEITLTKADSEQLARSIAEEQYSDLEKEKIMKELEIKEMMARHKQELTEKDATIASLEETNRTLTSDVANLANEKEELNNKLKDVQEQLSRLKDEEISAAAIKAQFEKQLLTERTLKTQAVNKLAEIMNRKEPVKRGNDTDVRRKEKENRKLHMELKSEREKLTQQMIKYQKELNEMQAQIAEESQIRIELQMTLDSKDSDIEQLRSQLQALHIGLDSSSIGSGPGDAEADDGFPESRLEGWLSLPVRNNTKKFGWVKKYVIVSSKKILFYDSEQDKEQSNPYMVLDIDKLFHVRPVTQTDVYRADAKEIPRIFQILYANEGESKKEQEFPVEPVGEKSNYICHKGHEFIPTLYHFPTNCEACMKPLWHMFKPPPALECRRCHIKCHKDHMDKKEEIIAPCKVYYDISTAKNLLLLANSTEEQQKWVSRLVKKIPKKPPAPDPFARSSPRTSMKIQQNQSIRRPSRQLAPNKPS

Which IC50 [1] does the source give for `Nc1ccn(-c2cccc(CN[C@H]3CCC[C@H](Nc4ccc5[nH]ncc5c4)C3)c2)c(=O)c1` here?
The IC50 was 54 nM.

For `O=c1cc(-c2ccccc2)ccn1-c1cccc(CN[C@H]2CCC[C@H](Nc3ccc4[nH]ncc4c3)C2)c1`, which IC50 [2] is on record?
Its IC50 is 96.1 nM.

And the IC50 [1]?
The IC50 was 3 nM.

And the Ratio IC50 [3]?
Its Ratio IC50 is 32.

Which IC50 [2] does the source give for `O=c1ccccn1-c1cccc(CN[C@H]2CCC[C@H](Nc3ccc4[nH]ncc4c3)C2)c1` here?
The IC50 was 162 nM.

And the IC50 [1]?
Its IC50 is 42.4 nM.

What about the Ratio IC50 [3] of the same molecule?
Its Ratio IC50 is 4.

For `Nc1ccn(-c2ccc(CN3CCCC(Nc4ccc5[nH]ncc5c4)C3)cc2)c(=O)n1` (stereo not given), which IC50 [1] is on record?
The IC50 was 5 nM.

With `Nc1ccn(-c2ccc(CN3CCCCC(Nc4ccc5[nH]ncc5c4)C3)cc2)c(=O)n1` (stereo not given) as the molecule, how does the IC50 [1] read?
The IC50 was 2 nM.

With `Nc1ccn(-c2ccc(CNC3CCCC(Nc4ccc5[nH]ncc5c4)C3)cc2)c(=O)n1` (stereo not given) as the molecule, how does the IC50 [1] read?
Its IC50 is 0.7 nM.

Which IC50 [4] does the source give for `COc1cc(-c2cn[nH]c2)cc2c(=O)[nH]c(C3COc4ccc(OCCN(C)C)cc4C3)nc12` (stereo not given) here?
Its IC50 is 12 nM.

And the IC50 [5]?
The IC50 was 150 nM.

For `Nc1nc(=O)n(-c2cccc(CN[C@H]3CCC[C@@H](Nc4ccc5[nH]ncc5c4)C3)c2)cc1F`, which IC50 [1] is on record?
Its IC50 is 83.7 nM.

With `O=c1cc(F)ccn1-c1cccc(CN[C@H]2CCC[C@@H](Nc3ccc4[nH]ncc4c3)C2)c1` as the molecule, how does the IC50 [2] read?
The IC50 was 273 nM.

And the IC50 [1]?
Its IC50 is 88.1 nM.

And the Ratio IC50 [3]?
The Ratio IC50 was 3.

With `NC(=O)c1ccn(-c2cccc(CN[C@H]3CCC[C@H](Nc4ccc5[nH]ncc5c4)C3)c2)c(=O)c1` as the molecule, how does the IC50 [2] read?
Its IC50 is 238 nM.

What about the IC50 [1] of the same molecule?
The IC50 was 102 nM.

What about the Ratio IC50 [3] of the same molecule?
The Ratio IC50 was 2.

With `Cc1cc(=O)n(-c2cccc(CN[C@H]3CCC[C@@H](Nc4ccc5[nH]ncc5c4)C3)c2)cc1N` as the molecule, how does the IC50 [1] read?
Its IC50 is 434 nM.

Which results are given for `Cc1ccn(-c2cccc(CN[C@H]3CCC[C@@H](Nc4ccc5[nH]ncc5c4)C3)c2)c(=O)c1`?
IC50 [2]: 812 nM; IC50 [1]: 11.9 nM; Ratio IC50 [3]: 68

Which IC50 [2] does the source give for `Cc1ccc(=O)n(-c2cccc(CN[C@H]3CCC[C@@H](Nc4ccc5[nH]ncc5c4)C3)c2)c1` here?
Its IC50 is 102 nM.

And the IC50 [1]?
The IC50 was 138 nM.

What about the Ratio IC50 [3] of the same molecule?
The Ratio IC50 was 1.

What does the source list for `N#Cc1ccn(-c2cccc(CN[C@H]3CCC[C@@H](Nc4ccc5[nH]ncc5c4)C3)c2)c(=O)c1`?
IC50 [2]: 272 nM; IC50 [1]: 77.1 nM; Ratio IC50 [3]: 4

With `NC(=O)c1ccn(-c2cccc(CN[C@H]3CCC[C@@H](Nc4ccc5[nH]ncc5c4)C3)c2)c(=O)c1` as the molecule, how does the IC50 [2] read?
The IC50 was 464 nM.

What about the IC50 [1] of the same molecule?
The IC50 was 130 nM.

What about the Ratio IC50 [3] of the same molecule?
The Ratio IC50 was 4.

Which IC50 [1] does the source give for `CC(C)CCC(=O)Nc1ccn([C@H]2CC[C@H](O[C@H]3O[C@H](C)[C@@H](N(C)C)[C@H](O)[C@H]3O)[C@@H](C)O2)c(=O)n1` here?
Its IC50 is 72.8 nM.

For `Cc1cc(=O)n(-c2cccc(CN[C@H]3CCC[C@@H](Nc4ccc5[nH]ncc5c4)C3)c2)cc1F`, which IC50 [2] is on record?
The IC50 was 216 nM.

What about the IC50 [1] of the same molecule?
Its IC50 is 27 nM.

What about the Ratio IC50 [3] of the same molecule?
The Ratio IC50 was 8.

Which IC50 [1] does the source give for `Nc1nc(=O)n(-c2cccc(CN[C@H]3CCC[C@H](Nc4ccc5[nH]ncc5c4)C3)c2)cc1F` here?
The IC50 was 66.2 nM.

Which IC50 [1] does the source give for `Cc1cc(=O)n(-c2cccc(CN[C@H]3CCC[C@H](Nc4ccc5[nH]ncc5c4)C3)c2)cc1N` here?
Its IC50 is 561 nM.

With `CC(C)(C)c1ccn(-c2cccc(CN[C@H]3CCC[C@@H](Nc4ccc5[nH]ncc5c4)C3)c2)c(=O)c1` as the molecule, how does the IC50 [2] read?
The IC50 was 335 nM.

What about the IC50 [1] of the same molecule?
The IC50 was 1.6 nM.

What about the Ratio IC50 [3] of the same molecule?
The Ratio IC50 was 216.

With `Nc1ccn(-c2cccc(CNC3CCCC(Nc4ccc5[nH]ncc5c4)C3)c2)c(=O)n1` (stereo not given) as the molecule, how does the IC50 [1] read?
Its IC50 is 0.2 nM.

For `Cc1ccn(-c2cccc(CN[C@H]3CCC[C@H](Nc4ccc5[nH]ncc5c4)C3)c2)c(=O)c1`, which IC50 [2] is on record?
Its IC50 is 171 nM.

What about the IC50 [1] of the same molecule?
Its IC50 is 26 nM.

And the Ratio IC50 [3]?
Its Ratio IC50 is 7.

Which IC50 [2] does the source give for `O=c1ccccn1-c1cccc(CN[C@H]2CCC[C@@H](Nc3ccc4[nH]ncc4c3)C2)c1` here?
Its IC50 is 644 nM.

And the IC50 [1]?
The IC50 was 73.7 nM.

What about the Ratio IC50 [3] of the same molecule?
The Ratio IC50 was 9.

Which results are given for `CCc1ccn(-c2cccc(CN[C@H]3CCC[C@@H](Nc4ccc5[nH]ncc5c4)C3)c2)c(=O)c1C`?
IC50 [2]: 313 nM; IC50 [1]: 6.1 nM; Ratio IC50 [3]: 52

Which IC50 [2] does the source give for `CCc1ccn(-c2cccc(CN[C@H]3CCC[C@H](Nc4ccc5[nH]ncc5c4)C3)c2)c(=O)c1C` here?
Its IC50 is 209 nM.

And the IC50 [1]?
The IC50 was 13.1 nM.

What about the Ratio IC50 [3] of the same molecule?
Its Ratio IC50 is 16.

With `Cc1cccn(-c2cccc(CN[C@H]3CCC[C@H](Nc4ccc5[nH]ncc5c4)C3)c2)c1=O` as the molecule, how does the IC50 [2] read?
Its IC50 is 277 nM.

And the IC50 [1]?
Its IC50 is 18.7 nM.

And the Ratio IC50 [3]?
Its Ratio IC50 is 15.

What does the source list for `O=c1cc(-c2ccccc2)ccn1-c1cccc(CN[C@H]2CCC[C@@H](Nc3ccc4[nH]ncc4c3)C2)c1`?
IC50 [2]: 99.4 nM; IC50 [1]: 1.7 nM; Ratio IC50 [3]: 59

For `Nc1ccn(-c2cccc(CN3CCCC(Nc4ccc5[nH]ncc5c4)C3)c2)c(=O)n1` (stereo not given), which IC50 [1] is on record?
The IC50 was 1 nM.

Which IC50 [2] does the source give for `O=c1cc(C(F)(F)F)ccn1-c1cccc(CN[C@H]2CCC[C@H](Nc3ccc4[nH]ncc4c3)C2)c1` here?
Its IC50 is 279 nM.

What about the IC50 [1] of the same molecule?
Its IC50 is 173 nM.

What about the Ratio IC50 [3] of the same molecule?
The Ratio IC50 was 2.

Which IC50 [1] does the source give for `Nc1ccn(-c2cccc(CN[C@H]3CCC[C@@H](Nc4ccc5[nH]ncc5c4)C3)c2)c(=O)c1` here?
The IC50 was 77.5 nM.

What does the source list for `CC(C)(C)c1ccn(-c2cccc(CN[C@H]3CCC[C@H](Nc4ccc5[nH]ncc5c4)C3)c2)c(=O)c1`?
IC50 [2]: 210 nM; IC50 [1]: 1.3 nM; Ratio IC50 [3]: 162

Which IC50 [2] does the source give for `O=c1cc(C(F)(F)F)ccn1-c1cccc(CN[C@H]2CCC[C@@H](Nc3ccc4[nH]ncc4c3)C2)c1` here?
Its IC50 is 967 nM.

And the IC50 [1]?
The IC50 was 207 nM.

What about the Ratio IC50 [3] of the same molecule?
Its Ratio IC50 is 5.

Which IC50 [2] does the source give for `O=c1cc(F)ccn1-c1cccc(CN[C@H]2CCC[C@H](Nc3ccc4[nH]ncc4c3)C2)c1` here?
Its IC50 is 207 nM.

What about the IC50 [1] of the same molecule?
The IC50 was 36.6 nM.

What about the Ratio IC50 [3] of the same molecule?
The Ratio IC50 was 6.

With `Cc1cccn(-c2cccc(CN[C@H]3CCC[C@@H](Nc4ccc5[nH]ncc5c4)C3)c2)c1=O` as the molecule, how does the IC50 [2] read?
Its IC50 is 811 nM.

And the IC50 [1]?
Its IC50 is 153 nM.

And the Ratio IC50 [3]?
The Ratio IC50 was 5.

Which IC50 [2] does the source give for `Cc1ccc(=O)n(-c2cccc(CN[C@H]3CCC[C@H](Nc4ccc5[nH]ncc5c4)C3)c2)c1` here?
The IC50 was 152 nM.

What about the IC50 [1] of the same molecule?
Its IC50 is 35.4 nM.

What about the Ratio IC50 [3] of the same molecule?
The Ratio IC50 was 4.
